The results in this text go back to patent US10245238B2, “Composition for oral intake” (THERAVALUES CORPORATION, priority 2014, dated 2019).

By Cmax is commonly meant the peak of the concentration-time curve.

This data set can be described thus: Oral absorbability of various complexes: curcumin concentration in blood plasma after forced oral administration. To be noted: SD rats, curcumin dose 10 mg/kg. The data set is classed as in vivo. On the procedure:
(Oral Absorbability of Various Complexes)
For the test animal, 6-week old SD rats (male, body weight: 170 g to 260 g, Charles River Laboratories Japan, Inc.) were used.
In regard to the administration method, the various complexes (Examples 1 to 13) produced as described above were each added to water for injection in a predetermined amount, subsequently the mixture was made up to 20 mL so as to obtain a curcumin concentration of 1 mg/mL, the mixture was mixed using an ultrasonic generator, and the mixture was forcibly orally administered to test animals (n 3 or 5) that had been fasted for 12 hours or longer before administration, using a feeding needle, such that the curcumin dose would be 10 mg/kg (Administration Test Examples 1 to 13) or 50 mg/kg (Administration Test Example 14).
Meanwhile, the cases of administering curcumin base powder (Comparative Test Example 1); physical mixture obtained by simply physically mixing curcumin base powder and hydroxypropylmethyl cellulose powder or hydroxypropyl cellulose powder (curcumin:HPMC=1:3 or curcumin HPC=1:3) (Comparative Test Examples 2 and 3); or CR-031P powder (manufactured by Theravalues Corp.), which is a turmeric dye composition obtained by combining micronized curcuminoid with gum ghatti (Comparative Test Examples 4 and 5) was designated as controls.
For the measurement of the concentration of curcumin and/or an analog thereof in blood plasma, measurement was made by the following method, using heparinized blood plasma obtained by collecting about 0.5 mL of blood from the jugular vein of the test animals without anesthesia, after 30 minutes, 1 hour, and 2 hours from the initiation of administration.
100 μL of 0.1 M acetate buffer solution (pH 5.0) and 10 μL of β-glucuronidase solution (about 68,000 units/mL) were added to 20 μL of the collected blood plasma, and the mixture was maintained for 1 hour at 37° C. Subsequently, 10 μL of 50% (v/v) methanol including 20 ng/mL of mepronil, which was an internal standard liquid, and 0.5 mL of chloroform were added thereto, the mixture was stirred for 1 minute using a vortex mixer, and then the mixture was mixed for 15 minutes using an ultrasonic generator. An extraction-treated liquid thus prepared was separated into chloroform layer and an aqueous layer by centrifugation (13,000×g, for 5 minutes, at room temperature). This extraction treatment was repeated two times. Subsequently, the chloroform layer was collected, and the solvent was distilled off from this layer using a vacuum centrifugal concentrator to solid-dry the chloroform layer. 100 μL of 50% (v/v) methanol was added thereto, and then the mixture was centrifuged (13,000×g, for 5 minutes, at room temperature) to collect the supernatant.
2 μL of the supernatant produced as described above was subjected to an analysis using LC-MS/MS (manufactured by Shimadzu Corp.), and thereby the curcumin concentration in the blood plasma was measured. The conditions for the LC-MS/MS analysis were set such that the LC column was ATLANTIS T3 (2.1×150 mm, 3 μm, manufactured by Waters Corp.), the column temperature was 40° C., the flow rate was 0.2 mL/min, and the mobile phase included A: 0.1% aqueous solution of formic acid, and B: 0.1% formic acid/acetonitrile, and gradient elution was performed under the following conditions. […]

Regarding `COc1cc(/C=C/C(=O)/C=C(O)/C=C/c2ccc(O)c(OC)c2)ccc1O` [Curcumin base powder, curcumin], for the setting “0 to 2 h”, the AUC was 33.9 ng/mL · 0-2 h. This compound also yielded a Cmax (male, rat, plasma) of 49.8 ng/mL. This compound came in with a concentration at 0.5 h (male, rat, plasma, 0.5 h after administration) of 7.8 ng/mL. Where the note is “male, rat, plasma, 1 h after administration”, this compound showed a concentration at 1 h of 17.2 ng/mL. Where the note is “male, rat, plasma, 2 h after administration”, the concentration at 2 h worked out at 34.2 ng/mL.
